{"source": "patent US7173021B2", "about": "“Synthesis of temozolomide esters as potent anticancer pro-drugs for topical and transdermal applications in treatments of cancers” (Tianjin North Pharm Sci-Tech Co., Ltd., priority 2004, dated 2007)", "key": {"[1]": {"assay": "Solubility in 10% v/v propylene glycol", "type": "physicochemical", "conditions": "10% v/v propylene glycol aqueous solution, aqueous with cosolvent or surfactant or cyclodextrin, thermodynamic from solid, ambient conditions, stirred 5 hours, read-out: Solubility, Concentration", "method": "The potential of temozolomide esters used as topical and transdermal prodrugs is first proven through studies of their solubility. That is a decreased trend of solubility in an aqueous solution with increase of the length of the ester hydrocarbon alkyl chain of the temozolomide esters. It is clear the solubility constantly decreases from the methyl ester to the octyl ester, while temozolomide itself is 3.0 mg/ml similar to that of the methyl ester. […] Similarly to the esters, the solubility of the temozolomide amide products in the aqueous solution is considerably lower than that of temozolomide.\nThe solubility of temozolomide and the temozolomide esters was determined in 10% v/v propylene glycol by stirring an excess of the solid products at room temperature for 5 hours. The mixtures were then filtered, diluted with sample solvent and analysed using HPLC."}, "B16-BL6 (mouse melanoma)": {"system": "B16-BL6 (mouse melanoma)", "assay": "In vitro tumour cell growth inhibition (MTT), B16-BL6", "type": "cell-based", "conditions": "Mus musculus, B16-BL6, Table 2 experiment, 96 h", "method": "(§1) Temozolomide (white powder), temozolomide acid (white powder) and temozolomide-8-carboxylate hexyl (white scale crystal) were made in house. For the estimation of in vitro tumour cell growth inhibition, MV3 (human melanoma), M14 (human melanoma), B16 and B16-BL6 (mouse melanoma), SHG-44, TJ899 and TJ905 (human glioma), MCF-7 (human breast), HCT-8 (human colon), A549 (human non small lung), Bel7402 (human hepatocellulor), and BGC-823 (human stomach) were used. All tumour cells were cultured in RPMI-1640 medium supplemented with 10% fetal bovine serum (FBS) at 37° C. in a humidified 5% CO2 incubator.\n(§2) After being harvested from culture flasks, a cell suspension of 1×10^4/ml was made by using 1640 RPMI medium supplemented with 10% fetal bovine serum. 100 μl (contains 1000 tumour cells) of the cell suspension was seeded per well of 96-well flat-bottom Costar culture plates at 37° C. in a humidified 5% CO2 incubator for 24 hrs before introducing drugs. Each tested compounds was made for five different concentrations and 100 μl of the each concentration was introduced into parallel three wells; control wells were added with 100 μl of plain medium alone; fluorouracil (a chemotherapeutic antitumour drug) was used as the positive control. Cells were then incubated for 96 h. Proliferative response and cell death were determined using MTT (3-(4,5-dimethylthiazolyl)-2,5-diphenyl-tetrazolium bromide) assay.\n(§3) MTT assay: Following incubation of cells with the tested compounds for 96 h, 100 μl of 0.4 mg/ml MTT in RPMI 1640 was added to each well and the plate was incubated at 37° C. for 4 h. The plate was then centrifuged and followed by removal of medium. 150 μl of DMSO was then added to dissolve formazan crystal. DMSO-added plates were placed on a plate shaker for 5 min and absorbance was measured spectrophotometrically at 540 nm (with reference wavelength at 450 nm) using a Benchmark microtiter plate reader (Bio-Rad 550, Bio-Rad Laboratories, CA, U.S.A.).\n(§4) The IC50 was calculated from the curve of the tested compound concentrations against the inhibition rate of the tumour cells. Table 1 summarized the experiment results by using six human cancer cell lines, HCT-8 (colon carcinoma), A549 (non small lung carcinoma), MCF-7 (breast), Bel7402 (hepatocellulor carcinoma), BGC-823 (stomach adenocarcinoma), and MV3 (melanoma). Table 2 summarized the results from the experiment results by using two human melanoma cell lines, MV3 and M14, two mouse melanoma cell lines, B16 and B16-BL6, and three human glioma cell lines, TJ899, SHG-44 and TJ905."}, "[2]": {"system": "A549 (human non small lung)", "assay": "In vitro tumour cell growth inhibition (MTT), A549", "type": "cell-based", "conditions": "Table 1 experiment, 96 h", "method": "as §1, §2, §3\nThe IC50 was calculated from the curve of the tested compound concentrations against the inhibition rate of the tumour cells. […]"}, "TJ899 (human glioma)": {"system": "TJ899 (human glioma)", "assay": "In vitro tumour cell growth inhibition (MTT), TJ899", "type": "cell-based", "conditions": "Homo sapiens, Table 2 experiment, 96 h", "method": "as §1, §2, §3, §4"}, "[3]": {"assay": "Measured log P, octanol/water", "type": "physicochemical", "conditions": "octanol/water system; read-out: measured Log P (mLog P)", "method": "Log P values of temozolomide (1) and the temozolomide esters were calculated using TSAR (Oxford Molecular, Oxford, UK), Molecular Modeling Pro (ChemSW, Fairfield, Calif.) and Chem Office 7.0 (CambridgeSoft, Cambridge, UK) programmes. Calculated Log P values were verified for temozolomide and the temozolomide hexyl ester by measuring the octanol/water coefficient (Table 4)."}}}
{"smiles": "CCCCCCOC(=O)c1ncn2c(=O)n(C)nnc12", "note": "[temozolomide hexyl ester, Hexyl 3,4-dihydro-3-methyl-4-oxoimidazo[5,1-d]-1,2,3,5-tetrazine-8-carboxylate]", "values": [{"measurement": "solubility at 5 h", "setting": "[1]", "result": 400, "unit": "µg/mL"}, {"measurement": "IC50", "setting": "B16-BL6 (mouse melanoma)", "result": "> 100", "unit": "µg/mL"}, {"measurement": "IC50", "setting": "[2]", "result": 26.6, "unit": "µg/mL"}, {"measurement": "IC50", "setting": "TJ899 (human glioma)", "result": "> 100", "unit": "µg/mL"}, {"measurement": "logP", "setting": "[3]", "result": 2.56}]}
